“Also recorded” adds a separate entry of the source.
What was measured:
[1] = test system: 22Rv1 cells; experiment: CellTiter-Glo cell viability of CSRM617 derivatives in 22Rv1; type: cell-based, human; conditions: for potency (IC50) compared with compound CSRM617: 100 μM to 0.2 μM, 48 hours; for cell viability: 48 hours post treatment, CellTiter-Glo
Procedure: FIG. 17A: 22Rv1 cells were plated at a density of 1000 cells per well, in triplicate, in a 96 well plate. The next day cells were exposed to compound CSRM617, several derivatives or vehicle (1% DMSO) at a concentration of 25 μM. Viability was measured 48 hours post treatment using CellTiter-Glo Luminescent Cell Viability Assay (Promega). FIG. 17B: 22Rv1 cells were plated at a density of 1000 cells per well, in triplicate, in a 96 well plate. The next day, TO reading was collected and cells were exposed to compound CSRM617, the derivatives or vehicle (1% DMSO) at 2-fold concentration ranging from 100 μM to 0.2 μM. Viability was measured 48 hours post treatment using CellTiter-Glo Luminescent Cell Viability Assay (Promega).

[2] = Solubility relative to CSRM617; type: physicochemical
[3] = target: T1, purified recombinant OC2 HOX domain (Homo sapiens, UniProt O95948); experiment: Surface plasmon resonance (SPR) binding of compound to immobilized OC2-HOX domain
T1 construct: made in house
T1 sequence (O95948 426-485 limits assumed): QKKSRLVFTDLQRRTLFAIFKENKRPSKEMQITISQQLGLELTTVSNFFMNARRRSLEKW
Procedure: FIG. 13 depicts in accordance with various embodiments of the invention, Compound CSRM617 binds to ONECUT2 in a dose-dependent manner. To measure binding features of CSRM617, the OC2-HOX domain was recombinantly produced. Purified OC2-HOX binding domain was next immobilized on a HisCap sensor chip and CSRM617 was analyzed at serial doubling concentrations maximized at 100 μM.
FIG. 25A-FIG. 25C depict in accordance with various embodiments of the invention, FIG. 25A: (Left panel) representative sensorgram showing dose-dependent OC2-Compound CSRM617 interaction measured by surface plasmon resonance (SPR). Real-time binding was quantified by immobilizing biotinylated OC2 protein on the streptavidin biosensor with varying concentrations of Compound CSRM617 1.56-100 μm). (Right panel) OC2 binding to the experimentally determined OC2 binding site on the PEG10 promoter assayed by SPR. FIG. 25B: suppression of PEG10 protein expression in 22Rv1 tumors. FIG. 25C: suppression of PEG10 protein expression in 22Rv1 tumors.
(§1) To assess whether OC2 might be inhibited with a small molecule, we developed a structural model of OC2 binding to DNA using homology modeling, and conducted a virtual screen of a chemical library consisting of […] compounds. 15 compounds were selected for biological activity testing using in vitro assays. One compound, compound CSRM617, was deemed to be biologically active and was selected for further study. […] To evaluate the selectivity of Compound CSRM617 for genes regulated by OC2, we generated gene expression microarray data from 22Rv1 cells treated with Compound CSRM617 for 4, 6 and 16 h. […] As described above, we identified PEG10 as a gene directly regulated by OC2 binding to the PEG10 promoter. […] The OC2 HOX fragment bound with high affinity (Kd=1 nM) to a DNA probe corresponding to the experimentally determined OC2 binding motif in the PEG10 promoter (FIG. 25A, right panel).

[4] = test system: 22RV1; experiment: Cell-Titer GLO viability / proliferation in 22RV1; type: cell-based, human
Procedure: (§2) ACTB and GAPDH expression levels were used for normalization. […] Cells were seeded in 96-well plates at 500 cells per well in a total volume of 100 ul media containing 10% FBS. Serially diluted compound CSRM617 was added to the cells 24 h later. After 48 h incubation, cell viability was assessed by Cell-Titer GLO (Promega). The values were normalized and IC50 was calculated using GraphPad Prism software. […] RWPE-1 is a benign prostate cell line.

[5] = test system: human prostate cancer cell lines; experiment: Growth, apoptosis and IC50 across prostate cell lines versus OC2 expression; type: cell-based; conditions: PC cell lines that express medium to high levels of OC2
Procedure: as §2, §1

[6] = test system: PEG10 protein; experiment: PEG10 protein by IHC and digital imaging in tumors of treated mice; type: in vivo; conditions: adrenal gland tumors; IHC
Procedure: (§3) To determine whether Compound CSRM617 is effective against CRPC metastases, 22Rv1 cells were injected intracardially in SCID mice, and the animals were subsequently treated with the above dose of the compound for several weeks. […] To test for evidence of bioactivity of Compound CSRM617 in situ, PEG10 protein levels were measured using IHC followed by digital imaging in adrenal gland tumors.

[7] = test system: OC2 target genes; experiment: Gene expression microarray and GSEA of OC2 target genes in 22Rv1; type: cell-based, human; conditions: 10 μM, 4, 6 and 16 h
Procedure: FIG. 14A-FIG. 14E depict in accordance with various embodiments of the invention, Compound CSRM617 perturbs OC2-regulated genes and suppresses 22Rv1 tumor growth in mice. To evaluate the specificity of CSRM617 for genes regulated by OC2, we generated gene expression microarray data from 22Rv1 cells treated with the compound at a concentration of 10 μM for 4, 6 and 16 h.
as §1

[8] = test system: C4-2; experiment: Cell-Titer GLO viability / proliferation in C4-2; type: cell-based, human
Procedure: as §2

[9] = test system: 22Rv1 metastases; experiment: 22Rv1 intracardiac injection metastasis model; type: in vivo, SCID mice; conditions: 50 mg/kg daily; 4 w after intracardiac injection
Procedure: FIG. 15 depicts in accordance with various embodiments of the invention, Compound CSRM617 inhibits metastasis. 22Rv1-luciferase labeled cells were injected intracardially and mice were randomized (n=7 per group) to receive vehicle or 50 mg/kg^−1 CSRM617, daily. BLI images of mice bearing metastatic tumors 4 w after the injection (left) and graphical representation of normalized BLI signals (right). Mean±SD (n=7 per group) is shown; **P<0.01.
as §3

[10] = test system: PEG10 mRNA; experiment: PEG10 mRNA expression in 22Rv1 (microarray); type: cell-based, human; conditions: 10 μM, 4, 6 and 16 h
Procedure: FIG. 16A-FIG. 16C depict in accordance with various embodiments of the invention, that OC2 activates PEG10, a driver of transdifferentiation from adenocarcinoma to neuroendocrine cancer. […] FIG. 16C: we have generated gene expression microarray data from 22Rv1 cells treated with the compound at a concentration of 10 μM for 4, 6 and 16 h. […] By inhibiting OC2 with compound CSRM617 the expression levels of the NE driver PEG10 are reduced.
as §1

[11] = test system: 22Rv1 xenografts; experiment: Subcutaneous 22Rv1 xenograft growth in mice; type: in vivo; conditions: established 22Rv1 xenografts; 50 mg/Kg/d; 50 mg/kg/day
[12] = test system: 22RV1 prostate cancer cells; experiment: Apoptosis induction by cleaved Caspase-3 and PARP in 22RV1; type: cell-based, human
From the text: GAPDH served as a loading control.

[13] = Tolerability in treated mice (body weight, feeding, behavior); type: in vivo; conditions: 50 mg/Kg/d
Procedure: as §3

[14] = test system: LNCaP; experiment: Cell proliferation in vitro in LNCaP; type: cell-based, human
Procedure: as §2

SMILES | potency (IC50) compared with compound CSRM617 [1] | cell viability [1] | solubility compared with compound CSRM617 [2] | direct binding to OC2 [3] | also measured
O=C1CCC(C(=O)NCCc2ccc(O)c(O)c2O)CN1 (centres unmarked) [Compound 848] | comparable activity | reduces cell viability | improved solubility | – | –
N[C@@H](CO)C(=O)NNCc1ccc(O)c(O)c1O [Compound 122] | comparable activity | reduces cell viability | improved solubility | directly bind OC2 | –
CC(=O)NCCC(=O)NCCc1ccc(O)c(O)c1O [Compound 844] | comparable activity | reduces cell viability | improved solubility | – | –
O=C(CNC(=O)Cc1ccc(O)c(O)c1O)NO [Compound 843] | comparable activity | reduces cell viability | improved solubility | directly bind OC2 | –
NC(=O)C1CCCCN1C(=O)NCCc1ccc(O)c(O)c1O (centres unmarked) [Compound 123] | comparable activity | reduces cell viability | improved solubility | directly bind OC2 | –
N[C@@H](CO)C(=O)N/N=C/c1ccc(O)c(O)c1O [CSRM617] | – | – | – | binds directly to OC2 | sensitivity (IC50) to compound ([4]; 22RV1, 48 h incubation): highest sensitivity; cell proliferation in vitro ([4]; 22Rv1): inhibited cell proliferation; apoptosis [5]: induced apoptosis; cell growth [5]: inhibited cell growth; PEG10 protein levels in tumors [6]: significantly down-regulated; perturbation of OC2 target genes (GSEA) [7]: significant perturbation of OC2 target genes; cell proliferation in vitro [8]: inhibited cell proliferation; sensitivity (IC50) to compound ([8]; 48 h incubation): highest sensitivity; onset and growth of diffuse metastases (BLI) [9]: reduces significantly the onset and growth of diffuse metastases; also recorded: inhibited onset and growth of diffuse metastases; PEG10 mRNA expression [10]: downregulated in a time-dependent manner; Kd ([3]; SPR, serial doubling concentrations up to 100 μM): 7.43 µM; subcutaneous tumor growth [11]: reduces tumor growth; also recorded: inhibited subcutaneous growth; apoptosis (cleaved Caspase-3 and PARP) [12]: induces apoptosis; body weight [13]: did not affect body weight; feeding patterns or behavior [13]: did not affect; cell proliferation in vitro [14]: inhibited cell proliferation
